{"source": "patent US20100210506A1", "about": "“INTRANASAL ADMINISTRATION OF RAPID ACTING INSULIN” (MDRNA, INC., priority 2005, published 2010)", "key": {"[1]": {"system": "S. aureus, A. niger, P. auerignosa", "experiment": "Antimicrobial Effectiveness Testing, U.S. Pharmacopeial (USP <51>)", "assay_type": "cell-based", "conditions": "USP and EP AET, insulin nasal spray formulations at neutral pH", "procedure": "AET Study 1 was conducted to determine the Antimicrobial Effectiveness (AET) of an insulin nasal spray placebo with methylparaben sodium, propylparaben sodium, and propylene glycol. Additionally, AET Study 1 examined the AET of increased EDTA alone. Approximately 120 mL of each formulation was manufactured and tested in duplicate (n=2 analyses per sample).\n(§1) The AET methods used were in compliance with the requirements for U.S. Pharmacopeial (USP) and European Pharmacopeial (EP) AET and are described in Tables 34 and 35, respectively. The formulations were also tested for pH (per SOP 403), appearance (visual), and osmolality (per SOP 4000)."}, "[2]": {"experiment": "pH, appearance (visual) and osmolality of AET formulations", "assay_type": "physicochemical", "conditions": "preservative within insulin nasal spray formulation", "procedure": "as §1"}}, "note": "“Also recorded” adds a separate entry of the source.", "data": [{"smiles": "CCO", "note": "[Ethanol]", "values": [{"measurement": "antimicrobial effectiveness as preservative", "setting": "[1]", "result": "antimicribal activity similar to that of methylparaben sodium/propylparaben sodium/propylene glycol; also recorded: not an effective preservative (at 1%)"}]}, {"smiles": "CCCCCCCCCCCCC[N+](C)(C)Cc1ccccc1", "note": "[Benzalkonium chloride]", "values": [{"measurement": "antimicrobial effectiveness as preservative", "setting": "[1]", "result": "excellent preservative"}, {"measurement": "antimicrobial effectiveness as preservative", "setting": "[1]; listed as benzakonium chloride", "result": "best antimicrobial performance"}, {"measurement": "compatibility with insulin", "setting": "[2]", "result": "incompatible with insulin"}, {"measurement": "compatibility with insulin", "setting": "[2]; listed as benzakonium chloride", "result": "incompatible with insulin (caused precipitation)"}]}, {"smiles": "O=C([O-])c1ccccc1.[Na+]", "note": "[sodium benzoate]", "values": [{"measurement": "antimicrobial effectiveness as preservative", "setting": "[1]", "result": "not effective preservatives at neutral pH"}]}, {"smiles": "OCc1ccccc1", "note": "[Benzyl alcohol]", "values": [{"measurement": "antimicrobial effectiveness as preservative", "setting": "[1]", "result": "not effective preservatives at neutral pH; also recorded: ineffective as antimicrobial reagents"}, {"measurement": "antimicrobial effectiveness as preservative", "setting": "[1]; listed as benzyl alcohol", "result": "not effective preservatives"}]}, {"smiles": "Cc1cccc(O)c1", "note": "[m-cresol]", "values": [{"measurement": "antimicrobial effectiveness as preservative", "setting": "[1]", "result": "not effective preservatives"}]}]}
